Test results taken from article PMC7724566, “Prospects for Clinical Development of Stat5 Inhibitor IST5-002: High Transcriptomic Specificity in Prostate Cancer and Low Toxicity In Vivo” (Cancers, 2020).

Key:
[1] = tested on: patient-derived clinical PCs; set-up: method as in PMID 26026053, PMID 31548294; conditions: 3D tumor explant cultures; cited from earlier work
C57BL/6j mice [2] = experiment: Sub-chronic toxicity study (10 days), hematology; format: in vivo; conditions: daily i.p. 10 days, blood
Protocol: (§1) The sub-chronic toxicity study (10 days) was carried out in C57BL/6J mice (8 weeks) (stock 000664) (n = 10/dose group 5 of each sex). IST5 was administered daily (0, 10, 30 and 100 mg/kg) via i.p. injection. Vehicle (0 mg/kg) group mice received a single i.p. injection of 0.3% hydroxypropyl cellulose. Plasma samples were analyzed for aspartate aminotransferase (AST), alanine aminotransferase (ALT), sorbitol dehydrogenase (SDH), alkaline phosphatase (ALP), γ-lutamyltransferase (GGT), lactate dehydrogenase (LDH), bilirubin (TBIL), protein (TP), glucose (GLU), blood urea nitrogen (BUN), creatinine (CREAT), and electrolytes (Na, K, Cl, Ca, CO2) (Marshfield Labs, WI, USA). A detailed hematological analysis was carried out on the sub-mandibular blood samples of mice collected at the end of the protocol and analyzed for white blood cells, red blood cells, hemoglobin, lymphocyte counts, monocytes, eosinophils and granulocytes. Brain, liver, heart, kidney and spleen were harvested, weighed and fixed in 10% buffered formalin and processed for histopathological analysis. In histopathological analysis, gross morphology and ultra-structural change were assessed. The clinical chemistry parameters measured were the same as those used for the acute toxicity study.

C57BL/6j mice [3] = experiment: Sub-chronic toxicity study (10 days), plasma biochemistry; format: in vivo; conditions: daily i.p. 10 days; for A-G Ratio / ALT / AST / Albumin / Alk.Ptase / Bile Acid / Chol / TBIL / Globulin / BUN: plasma; for Globulin: in g/dL (unit assumed); for BUN: in mg/dL (unit assumed)
Protocol: as §1

athymic nude mice = experiment: Chronic toxicity study (28 days), plasma biochemistry; format: in vivo; conditions: i.p. 28 days; for A-G Ratio / ALT / AST / Albumin / Alk.Ptase / Bile Acid / Chol / TBIL / Globulin / BUN: plasma; for Globulin: in g/dL (unit assumed); for BUN: in mg/dL (unit assumed)
Protocol: Forty athymic nude mice (8 weeks) (Crl:NU/NCr-Foxn1n) of either sex (20 males and 20 females) were randomized into four groups (n = 5/group) for either sex. The randomization of the mice was carried out based on their baseline body weight measured on day 0. IST5 or vehicle (0.3% hydroxypropyl cellulose, (Sigma-Aldrich, MO, St. Louis, MO, USA) were administered to the mice by i.p. injection for 28 days. The mice were observed daily for behavior, and body weights were measured on every 3rd day throughout the 28-day experimental protocol. The monitoring was started immediately after the compound administration and continued for 2 h for any acute signs of toxicity. In addition, the mice were monitored daily for any signs of toxicity using several clinical parameters. The clinical signs that were taken into consideration were as follows: 1) weight loss: rapid weight loss ([…]) or, weight loss of extended period time ([…]); 2) rapid growth of mass or masses; 3) paralysis or paresis (partial paralysis); 4) frank bleeding from any orifice; 5) lesions interfering with eating or drinking; 6) diarrhea (non-formed/soft stool or diarrhea liquid stool); 6) loss of body temperature; 7) appearance: rough coat, porphyrin staining (red or brown staining around eyes, nose, or along front paws, distended abdomen, alopecia; 8) eyes: ocular discharge, pale appearance, distinct icterus (jaundice or yellowing of the eyes); 9) respiration: coughing or wheezing, rales or crackling in the lungs, respiration increased or labored; 10) behavioral: hunched posture, huddling in a corner, lethargy, avoiding cagemate(s), head tilt, tremors (head, body, tail), spasticity (stiff muscles), ataxia (loss of voluntary muscle movement), seizures or convulsions, circling, persistent self-induced trauma, chattering or vocalizations, loss of startle response, loss of righting reflex. The clinical chemistry parameters measured were the same as those used for the acute toxicity study.

For `O=P(O)(O)OCC1OC(n2cnc3c(NCc4ccccc4)ncnc32)C(O)C1O` (centres unmarked) [IST5], the “apoptotic death in patient-derived clinical PCs ex vivo” value [1] is listed as “induce apoptotic death”, the EOS (C57BL/6j mice [2]; 10 mg/kg) is listed as 3.88 ± 1.0% and the GRA (C57BL/6j mice [2]; 10 mg/kg) is listed as 25.9 ± 2.3%. For the same compound, the HGB (C57BL/6j mice [2]; 10 mg/kg) was 19.8 ± 1.4 g/dL, the LYM (C57BL/6j mice [2]; 10 mg/kg) was 67.8 ± 2.0% and the MON (C57BL/6j mice [2]; 10 mg/kg) was 6.29 ± 0.75%. For the same compound, the PLT (C57BL/6j mice [2]; 10 mg/kg) was 614 ± 119 10^3/µL, the RBC (C57BL/6j mice [2]; 10 mg/kg) was 10.59 ± 0.2 M/uL and the WBC (C57BL/6j mice [2]; 10 mg/kg) was 4.18 ± 0.65 K/uL. The EOS (C57BL/6j mice [2]; 30 mg/kg) was 5.29 ± 1.35%, the GRA (C57BL/6j mice [2]; 30 mg/kg) was 29.7 ± 6.7% and the HGB (C57BL/6j mice [2]; 30 mg/kg) was 18.2 ± 2.5 g/dL. For the same compound, the LYM (C57BL/6j mice [2]; 30 mg/kg) was 63.23 ± 6.7%, the MON (C57BL/6j mice [2]; 30 mg/kg) was 7.06 ± 0.5% and the PLT (C57BL/6j mice [2]; 30 mg/kg) was 553 ± 154 10^3/µL. It also gave an RBC (C57BL/6j mice [2]; 30 mg/kg) of 9.61 ± 0.31 M/uL, a WBC (C57BL/6j mice [2]; 30 mg/kg) of 3.76 ± 0.55 K/uL and a BW (C57BL/6j mice [3]; 10 mg/kg) of 22.5 ± 1.1 gm. For the same compound, the HCT (C57BL/6j mice [3]; 10 mg/kg) was 0.43 ± 0.02 L/L, the A-G Ratio (C57BL/6j mice [3]; 10 mg/kg) was 1.93 ± 0.08 and the ALT (C57BL/6j mice [3]; 10 mg/kg) was 50.4 ± 3.71 U/L. For the same compound, the AST (C57BL/6j mice [3]; 10 mg/kg) was 329.9 ± 30.9 U/L, the Albumin (C57BL/6j mice [3]; 10 mg/kg) was 2.69 ± 0.05 g/dL and the Alk.Ptase (C57BL/6j mice [3]; 10 mg/kg) was 51.3 ± 0.72 U/L. For the same compound, the “Bile Acid” value (C57BL/6j mice [3]; 10 mg/kg) was 21.0 ± 12.7 µmol/dL, the Chol (C57BL/6j mice [3]; 10 mg/kg) was 65.0 ± 2.09 mg/dL and the TBIL (C57BL/6j mice [3]; 10 mg/kg) was 0.26 ± 0.02 mg/dL. It also gave a Globulin (C57BL/6j mice [3]; 10 mg/kg) of 1.41 ± 0.04, a BUN (C57BL/6j mice [3]; 10 mg/kg) of 20.5 ± 0.82 and a BW (C57BL/6j mice [3]; 30 mg/kg) of 23.5 ± 0.6 gm. The HCT (C57BL/6j mice [3]; 30 mg/kg) was 0.45 ± 0.01 L/L, the A-G Ratio (C57BL/6j mice [3]; 30 mg/kg) was 1.9 ± 0.11 and the ALT (C57BL/6j mice [3]; 30 mg/kg) was 45.2 ± 3.76 U/L. The AST (C57BL/6j mice [3]; 30 mg/kg) was 336 ± 57.1 U/L, the Albumin (C57BL/6j mice [3]; 30 mg/kg) was 2.74 ± 0.07 g/dL and the Alk.Ptase (C57BL/6j mice [3]; 30 mg/kg) was 53.0 ± 1.93 U/L. For the same compound, the “Bile Acid” value (C57BL/6j mice [3]; 30 mg/kg) was 2.39 ± 0.32 µmol/dL, the Chol (C57BL/6j mice [3]; 30 mg/kg) was 70.3 ± 1.38 mg/dL and the TBIL (C57BL/6j mice [3]; 30 mg/kg) was 0.21 ± 0.01 mg/dL. For the same compound, the Globulin (C57BL/6j mice [3]; 30 mg/kg) was 1.47 ± 0.07, the BUN (C57BL/6j mice [3]; 30 mg/kg) was 25 ± 1.32 and the BW (athymic nude mice; 10 mg/kg) was 22.5 ± 1.1 gm. It also gave an HCT (athymic nude mice; 10 mg/kg) of 0.43 ± 0.02 L/L, an A-G Ratio (athymic nude mice; 10 mg/kg) of 1.93 ± 0.08 and an ALT (athymic nude mice; 10 mg/kg) of 50.4 ± 3.71 U/L. The AST (athymic nude mice; 10 mg/kg) was 329.9 ± 30.9 U/L, the Albumin (athymic nude mice; 10 mg/kg) was 2.69 ± 0.05 g/dL and the Alk.Ptase (athymic nude mice; 10 mg/kg) was 51.3 ± 0.72 U/L. For the same compound, the “Bile Acid” value (athymic nude mice; 10 mg/kg) was 21.0 ± 12.7 µmol/dL, the Chol (athymic nude mice; 10 mg/kg) was 65.0 ± 2.09 mg/dL and the TBIL (athymic nude mice; 10 mg/kg) was 0.26 ± 0.02 mg/dL. The Globulin (athymic nude mice; 10 mg/kg) was 1.41 ± 0.04, the BUN (athymic nude mice; 10 mg/kg) was 20.5 ± 0.82 and the BW (athymic nude mice; 30 mg/kg) was 23.5 ± 0.6 gm. For the same compound, the HCT (athymic nude mice; 30 mg/kg) was 0.45 ± 0.01 L/L, the A-G Ratio (athymic nude mice; 30 mg/kg) was 1.9 ± 0.11 and the ALT (athymic nude mice; 30 mg/kg) was 45.2 ± 3.76 U/L. For the same compound, the AST (athymic nude mice; 30 mg/kg) was 336 ± 57.1 U/L, the Albumin (athymic nude mice; 30 mg/kg) was 2.74 ± 0.07 g/dL and the Alk.Ptase (athymic nude mice; 30 mg/kg) was 53.0 ± 1.93 U/L. The “Bile Acid” value (athymic nude mice; 30 mg/kg) was 2.39 ± 0.32 µmol/dL, the Chol (athymic nude mice; 30 mg/kg) was 70.3 ± 1.38 mg/dL and the TBIL (athymic nude mice; 30 mg/kg) was 0.21 ± 0.01 mg/dL. It also gave a Globulin (athymic nude mice; 30 mg/kg) of 1.47 ± 0.07, a BUN (athymic nude mice; 30 mg/kg) of 25 ± 1.32 and a BW (athymic nude mice; 100 mg/kg) of 23.5 ± 0.9 gm. It also gave an HCT (athymic nude mice; 100 mg/kg) of 0.43 ± 0.03 L/L, an ALT (athymic nude mice; 100 mg/kg) of 50.9 ± 3.83 U/L and an AST (athymic nude mice; 100 mg/kg) of 327 ± 4.03 U/L. For the same compound, the Albumin (athymic nude mice; 100 mg/kg) was 2.74 ± 0.04 g/dL, the Alk.Ptase (athymic nude mice; 100 mg/kg) was 53.3 ± 1.76 U/L and the “Bile Acid” value (athymic nude mice; 100 mg/kg) was 2.98 ± 0.29 µmol/dL. It also gave a Chol (athymic nude mice; 100 mg/kg) of 75.9 ± 2.06 mg/dL and a BUN (athymic nude mice; 100 mg/kg) of 23.0 ± 0.07.
